Assay results as given in US11026426B2, “Oxadiazole and phenol derivatives as antibacterial and/or herbicidal agents” (NORTHERN ILLINOIS RESEARCH FOUNDATION, priority 2017, dated 2021).
Where two headings read alike, the source gives them in different places.

Key:
AtIspF = AtIspF (Arabidopsis thaliana, UniProt Q9CAK8); experiment: University of Hamburg photometric enzymatic inhibition assay AtIspF; assay type: biochemical
Experimental: (§1) Compounds were subjected to a photometric enzymatic assay to test for inhibition of the plant enzymes Arabidopsis thaliana IspD and IspF, and IspE from Lycopersicon esculentum.
The IspF assay mixture conditions were as follows: 100 mM Tris hydrochloride at pH 8.0 with 10 mM MgCl2, 1 mM dithiothreitol, 2.5 mM potassium phosphoenol pyruvate, 2 mM ATP, 1 mM of 4-diphosphocytidyl-2C methylerythritol 2-phosphate, 460 μM NADH, 1.1% (v/v) DMSO, 0.5 U CMP kinase, 2.4 mU IspF, 1 U lactate dehydrogenase, 1 U pyruvate kinase in 180 μL of solution. Solutions were incubated at 27° C. and monitored photometrically.

Mycobacterium smegmatis = experiment: Antibacterial preliminary screening MS; assay type: cell-based; conditions: score 0-3; also: key: 0 represents no inhibition; 3 is comparable to commercial antibiotic control
Pseudomonas aeruginosa = experiment: Antibacterial preliminary screening PA; assay type: cell-based; conditions: score 0-3; also: key: 0 represents no inhibition; 3 is comparable to commercial antibiotic control
Bacillus cereus = experiment: Antibacterial preliminary screening BC; assay type: cell-based; conditions: score 0-3; also: key: 0 represents no inhibition; 3 is comparable to commercial antibiotic control
AtIspD = AtIspD (Arabidopsis thaliana, UniProt P69834); experiment: University of Hamburg photometric enzymatic inhibition assay AtIspD; assay type: biochemical
AtIspD, sequence (P69834 62-302): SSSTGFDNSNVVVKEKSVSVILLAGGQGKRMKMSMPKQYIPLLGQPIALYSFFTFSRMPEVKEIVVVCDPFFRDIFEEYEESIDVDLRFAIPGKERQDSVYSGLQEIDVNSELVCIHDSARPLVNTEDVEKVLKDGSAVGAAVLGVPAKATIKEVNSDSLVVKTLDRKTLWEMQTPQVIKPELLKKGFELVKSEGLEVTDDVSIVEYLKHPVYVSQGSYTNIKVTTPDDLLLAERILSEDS
Experimental: as §1
The procedure for AtIspD enzymatic inhibition assay, was performed by making an assay mixture of 100 mM Tris hydrochloride at pH 8.0 with 10 mM MgCl2, 1 mM dithiothreitol, 2.5 mM potassium phosphoenol pyruvate, 2.1 mM CTP, 2 mM ATP, 1 mM of (2R,3S)-2,3-dihydroxy-4-oxopentyl phosphate, 460 μM NADH, 1.1% (v/v) DMSO, 0.4 U IspE, 1 U lactate dehydrogenase, 1 U pyruvate kinase and 2.4 mU IspD in 180 μL of solution. Solutions were incubated at 27° C. and monitored photometrically. By preparing the assay mixture with a large excess of IspE compared to IspD, any inhibition of IspE by the test inhibitor would be insignificant compared to IspD and therefore the rate of the reaction is determined by IspD activity.

Micrococcus luteus = experiment: Antibacterial preliminary screening ML; assay type: cell-based; conditions: score 0-3; also: key: 0 represents no inhibition; 3 is comparable to commercial antibiotic control
Klebsiella pneumonia = experiment: Antibacterial preliminary screening KP; assay type: cell-based; conditions: score 0-3; also: key: 0 represents no inhibition; 3 is comparable to commercial antibiotic control
[1] = system: Burkholderia thailandensis; assay type: cell-based; conditions: preliminary screening, score 0-3
LeIspE = LeIspE (Solanum lycopersicum, UniProt P93841); experiment: University of Hamburg photometric enzymatic inhibition assay LeIspE; assay type: biochemical, Lycopersicon esculentum
LeIspE, sequence (P93841 89-401): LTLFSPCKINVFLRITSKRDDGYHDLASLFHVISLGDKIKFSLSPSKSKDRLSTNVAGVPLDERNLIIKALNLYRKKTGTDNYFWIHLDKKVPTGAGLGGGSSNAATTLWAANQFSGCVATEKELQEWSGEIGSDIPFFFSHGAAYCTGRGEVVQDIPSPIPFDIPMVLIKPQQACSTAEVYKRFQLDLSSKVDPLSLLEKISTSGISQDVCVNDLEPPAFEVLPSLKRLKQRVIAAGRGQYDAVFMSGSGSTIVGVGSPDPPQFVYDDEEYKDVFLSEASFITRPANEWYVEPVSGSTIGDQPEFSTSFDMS
Experimental: as §1
The IspE assay conditions were very similar to the IspD assay in which the assay mixture was composed of 100 mM Tris hydrochloride at pH 8.0 with 10 mM MgCl2, 1 mM dithiothreitol, 2.5 mM potassium phosphoenol pyruvate, 2 mM ATP, 1 mM of 4-Diphosphocytidyl-2-C-methylerythritol, 460 μM NADH, 1.1% (v/v) DMSO, 2.4 mU IspE, 1 U lactate dehydrogenase, 1 U pyruvate kinase in 180 μL of solution. Solutions were incubated at 27° C. and monitored photometrically.

Escherichia coli = experiment: Antibacterial preliminary screening EC; assay type: cell-based; conditions: score 0-3; also: key: 0 represents no inhibition; 3 is comparable to commercial antibiotic control
Corynebacterium xerosis = experiment: Antibacterial preliminary screening CX; assay type: cell-based; conditions: score 0-3; also: key: 0 represents no inhibition; 3 is comparable to commercial antibiotic control
[2] = system: Corynebacterium pseudodiphtheriae; experiment: Antibacterial preliminary screening CP; assay type: cell-based; conditions: score 0-3;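 also: 0 is no inhibition and 3 matches the commercial antibiotic control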
lettuce seeds = experiment: Lettuce leaf assay; assay type: in vivo; set-up: key: 0 (no effect); 5(complete inhibition or bleaching); conditions: ranking 0-5
Excerpt: The lettuce leaf assay is a qualitative assay used to determine the relative effectiveness of the test compounds at inhibition of germination of seeds and root development as well as causing bleaching of leaves. Isoprenoid synthesis is vital in plants as isoprene-product gibberellins are a class of growth hormones in plants responsible for stimulating cell elongation and division. In addition, some carotenoids are involved in photosynthesis as components of the electron transport chain. MEP pathway inhibitors have the potential to prevent synthesis of these necessary cellular components and growth hormones resulting in inhibition of germination and root development as well as causing chlorosis, or bleaching in the leaves. The lettuce leaf assay, explores the effects of compounds as potential MEP pathway inhibitors by evaluating the effect on bleaching, root development, and germination of lettuce seeds, which all rely on isoprenoid biosynthesis. […] The assay is a qualitative assay and the effects are given rankings from 0 (no effect) to 5 (complete inhibition or bleaching). In this assay, compounds are dissolved in a volatile organic solvent and applied to filter paper in a petri dish. The solvent is allowed to evaporate and lettuce seeds are applied followed by the addition of 5 mL of water to obtain the necessary concentrations. Seeds are allowed to grow and they are observed on day 3 and day 4 for evaluation.

[3] = target: Lycopersicon esculentum IspE (LeIspE) (Solanum lycopersicum, UniProt P93841); experiment: Thermal shift assay against LeIspE; assay type: binding
Lycopersicon esculentum IspE (LeIspE), sequence (P93841 89-401): as above

[4] = target: T1, Mycobacterium tuberculosis IspD (MtIspD) (Mycobacterium tuberculosis, UniProt P9WKG9); experiment: Thermal shift assay against MtIspD; assay type: binding
T1 sequence (P9WKG9 1-231): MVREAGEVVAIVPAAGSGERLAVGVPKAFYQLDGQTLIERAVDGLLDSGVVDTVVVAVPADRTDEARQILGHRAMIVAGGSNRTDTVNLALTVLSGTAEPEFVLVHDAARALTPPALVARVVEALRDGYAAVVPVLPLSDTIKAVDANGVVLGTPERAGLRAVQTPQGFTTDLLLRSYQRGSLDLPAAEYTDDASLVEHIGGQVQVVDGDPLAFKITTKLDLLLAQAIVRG

AtIspF, sequence (Q9CAK8 53-231): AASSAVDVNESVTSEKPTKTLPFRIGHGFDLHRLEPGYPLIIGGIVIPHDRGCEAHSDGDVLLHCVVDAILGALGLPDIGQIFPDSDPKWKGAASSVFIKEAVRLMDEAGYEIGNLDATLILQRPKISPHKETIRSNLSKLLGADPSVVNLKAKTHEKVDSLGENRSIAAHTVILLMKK

Structure (SMILES)	IC50 (AtIspF) [µM]	MS score (Mycobacterium smegmatis)	PA score (Pseudomonas aeruginosa)	BC score (Bacillus cereus)	IC50 (AtIspD) [µM]	melting point [°C]	ML score (Micrococcus luteus)	KP score (Klebsiella pneumonia)	BT score [1]	IC50 (LeIspE) [µM]	EC score (Escherichia coli)	CX score (Corynebacterium xerosis)	CP score [2]	IC50 (AtIspF; read-out: AtIspF IC50) [µM]	IC50 (AtIspD; read-out: AtIspD IC50) [µM]	LeIspE melting point change [3] [°C]	LeIspE melting temp [3] [°C]	IC50 (LeIspE; read-out: LeIspE IC50) [µM]	MtIspD melting point change [4] [°C]	MtIspD melting temp [4] [°C]	also measured
c1ccc(-c2nnc(-c3cc4ccccc4[nH]3)o2)cc1 [HGN-208, 2-(1H-indol-2-yl)-5-phenyl-1,3,4-oxadiazole]	> 1000	0	0	0	342 ± 42	254 to 257	0	0	0	165 ± 47	0	0	0								
Cc1nnc(-c2cc3ccccc3[nH]2)o1 [HGN-209, 2-(1H-indol-2-yl)-5-methyl-1,3,4-oxadiazole]		0	0	0		232 to 234	0	0	0		0	0	0	> 1000	> 1000	−2.25	47.25	> 1000	1.5	49.5	Bleaching (lettuce seeds; 0.5 mM): 0; Germination (lettuce seeds; 0.5 mM): 1; Root Dev. (lettuce seeds; 0.5 mM): 1; Bleaching (lettuce seeds; 1.0 mM): 0; Germination (lettuce seeds; 1.0 mM): 2; Root Dev. (lettuce seeds; 1.0 mM): 1
COCc1nnc(-c2cc3ccccc3[nH]2)o1 [HGN-212, 2-(1H-indol-2-yl)-5-(methoxymethyl)-1,3,4-oxadiazole]	> 1000	0	0	0	> 1000	152 to 156	0	0	0	> 1000	0	0	0								
c1ccc(CCc2nnc(-c3cc4ccccc4[nH]3)o2)cc1 [HGN-215, 2-(1H-indol-2-yl)-5-phenethyl-1,3,4-oxadiazole]		0	0	0		161 to 164	0	0	0		0	0	0	> 1000	> 1000	−2.00	47.50	430 ± 48	0.8	48.8	Bleaching (lettuce seeds; 0.15 mM): 0; Germination (lettuce seeds; 0.15 mM): 0; Root Dev. (lettuce seeds; 0.15 mM): 0; Bleaching (lettuce seeds; 0.3 mM): 0; Germination (lettuce seeds; 0.3 mM): 0; Root Dev. (lettuce seeds; 0.3 mM): 0
c1ccc(Cc2nnc(-c3cc4ccccc4[nH]3)o2)cc1 [HGN-221, 2-benzyl-5-(1H-indol-2-yl)-1,3,4-oxadiazole]		0	0	0		211 to 215	0	0	0		0	0	0	> 1000	636 ± 68	0.00	49.50	> 1000	0.5	48.5	Bleaching (lettuce seeds; 0.15 mM): 0; Germination (lettuce seeds; 0.15 mM): 0; Root Dev. (lettuce seeds; 0.15 mM): 0; Bleaching (lettuce seeds; 0.3 mM): 0; Germination (lettuce seeds; 0.3 mM): 0; Root Dev. (lettuce seeds; 0.3 mM): 0
CC(C)(C)c1nnc(-c2cc3ccccc3[nH]2)o1 [HGN-239, 2-(tert-butyl)-5-(1H-indol-2-yl)-1,3,4-oxadiazole]		0	0	0		163 to 168	0	0	0		0	0	0	> 1000	> 1000	−2.50	47.00	> 1000		49.5	Bleaching (lettuce seeds; 0.5 mM): 0; Germination (lettuce seeds; 0.5 mM): 0; Root Dev. (lettuce seeds; 0.5 mM): 0; Bleaching (lettuce seeds; 1.0 mM): 0; Germination (lettuce seeds; 1.0 mM): 1; Root Dev. (lettuce seeds; 1.0 mM): 0
CC(C)c1nnc(-c2cc3ccccc3[nH]2)o1 [HGN-240, 2-(1H-indol-2-yl)-5-isopropyl-1,3,4-oxadiazole]		0	0	0		164 to 170	0	0	0		0	0	0	> 1000	> 1000	−1.50	48.00	> 1000	0.8	48.8	Bleaching (lettuce seeds; 0.5 mM): 0; Germination (lettuce seeds; 0.5 mM): 1; Root Dev. (lettuce seeds; 0.5 mM): 0; Bleaching (lettuce seeds; 1.0 mM): 0; Germination (lettuce seeds; 1.0 mM): 2; Root Dev. (lettuce seeds; 1.0 mM): 0
Clc1cccc(-c2nnc(-c3cc4ccccc4[nH]3)o2)c1 [HGN-241, 2-(3-chlorophenyl)-5-(1H-indol-2-yl)-1,3,4-oxadiazole]		0	0	0		202 to 207	0	0	0		0	0	0	> 1000	> 1000	−1.75	47.75	149 ± 41	0.5	48.5	Bleaching (lettuce seeds; 0.2 mM): 0; Germination (lettuce seeds; 0.2 mM): 1; Root Dev. (lettuce seeds; 0.2 mM): 0
c1ccc2[nH]c(-c3nnc(C4CCC4)o3)cc2c1 [HGN-251, 2-cyclobutyl-5-(1H-indol-2-yl)-1,3,4-oxadiazole]	> 1000	0	0	0	> 1000	169 to 173	0	0	0	> 1000	0	0	0								
